Source: US12528759B2, “Crystalline forms of bempedoic acid” (SYNTHON B.V., priority 2019, dated 2026)
Where two headings read alike, the source gives them in different places.

Columns and labels:
[1] = Water content of the crystalline form under extreme high humidity; format: physicochemical
Solubility = format: physicochemical
[2] = Stability of the crystalline form when dried in oven; format: physicochemical; conditions: e.g. 40° C.
[3] = Flowability and stickiness of the solid form; format: physicochemical
[4] = prior-art solid form of WO2018218147; cited from earlier work

CC(C)(CCCCCC(O)CCCCCC(C)(C)C(=O)O)C(=O)O [Form B, 8-Hydroxy-2,2,14,14-tetramethylpentadecanedioic acid]
water content change when subjected to extreme high level of humidity ([1]; 70-90% relative humidity): did not change
water absorption or loss when subjected to extreme conditions ([1]; humidity above 70% relative humidity): does not absorb or lose water
solubility (Solubility): good
stability when dried in oven [2]: stable

CC(C)(CCCCCC(O)CCCCCC(C)(C)C(=O)O)C(=O)O [Form A, 8-Hydroxy-2,2,14,14-tetramethylpentadecanedioic acid]
flowability [3]: good
stickiness [3]: not sticky

CC(C)(CCCCCC(O)CCCCCC(C)(C)C(=O)O)C(=O)O [solid form of Bempedoic acid, 8-Hydroxy-2,2,14,14-tetramethylpentadecanedioic acid]
flow characteristics [4]: poor
stickiness [4]: very sticky
